Results: ChEMBL document CHEMBL1201862, “PubChem BioAssay data set” (2004)
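Grown in 96-well plates, cells were treated for 48 hours with each compound at five concentrations. Insufficient inhibition: endpoint recorded as highest concentration tested. GI50 is the concentration that inhibits growth by half.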 Active and inactive are the calls of the source. No stated cut-off is given here; in the data, active = GI50 up to about 1.1 µM and inactive = higher.

Columns and labels:
Assay in all cases: growth of human tumour cells (NCI), 48 h
HCT-15 = tested on: HCT-15
NCI-H23 = tested on: NCI-H23
LOX IMVI = tested on: LOX IMVI
SR = tested on: SR
RPMI-8226 = tested on: RPMI-8226
RXF 393 = tested on: RXF 393
Hs-578T = tested on: Hs-578T
OVCAR-4 = tested on: OVCAR-4
MCF7 = tested on: MCF7
HOP-62 = tested on: HOP-62
MDA-MB-435 = tested on: MDA-MB-435
NCI-H460 = tested on: NCI-H460
UACC-62 = tested on: UACC-62
UACC-257 = tested on: UACC-257
SK-OV-3 = tested on: SK-OV-3
SF-295 = tested on: SF-295
UO-31 = tested on: UO-31
SF-268 = tested on: SF-268
OVCAR-8 = tested on: OVCAR-8
NCI-H226 = tested on: NCI-H226

SMILES | GI50 (HCT-15) [µM] | GI50 (NCI-H23) | GI50 (LOX IMVI) | GI50 (SR) | GI50 (RPMI-8226) | GI50 (RXF 393) | GI50 (Hs-578T) | GI50 (OVCAR-4) | GI50 (MCF7) | GI50 (HOP-62) | GI50 (MDA-MB-435) | GI50 (NCI-H460) | GI50 (UACC-62) | GI50 (UACC-257) | GI50 (SK-OV-3) | GI50 (SF-295) | GI50 (UO-31) | GI50 (SF-268) | GI50 (OVCAR-8) | GI50 (NCI-H226)
C/C(=C\c1ccccc1)C(=O)NCc1ccc(C(=O)NCCc2ccccc2)cc1 | > 100 | > 52.4 µM (inactive) | > 100 µM (inactive) | > 100 µM (inactive) | > 100 µM (inactive) | 13.8 µM (inactive) | 7.16 µM (inactive) | > 100 µM (inactive) | > 100 µM (inactive) | 3 µM (inactive) | > 100 µM (inactive) | > 100 µM (inactive) | > 100 µM (inactive) | > 100 µM (inactive) | 12.2 µM (inactive) | 27.7 µM (inactive) | 22 µM (inactive) | 4.37 µM (inactive) | 3.47 µM (inactive) | 17.9 µM (inactive)
Cc1nc2sc(CCl)nn2c(=O)c1Cl | 11.5 | 17.4 µM (inactive) | 1.92 µM (inactive) | 4.61 µM (inactive) | 5.62 µM (inactive) | 4.57 µM (inactive) | 19.1 µM (inactive) | 15.7 µM (inactive) | 4.58 µM (inactive) | 17.6 µM (inactive) | 4.95 µM (inactive) | 10.6 µM (inactive) | 14 µM (inactive) | 12.3 µM (inactive) | 14.6 µM (inactive) | 16.6 µM (inactive) | 14.2 µM (inactive) | 14.2 µM (inactive) | 14 µM (inactive) | 14.9 µM (inactive)
COc1ccc(-n2nnc3c(C#N)c(-c4ccccc4)c(C)n3c2=O)cc1 | 31.4 | 80.4 µM (inactive) | 33.8 µM (inactive) | 7.45 µM (inactive) | 26.1 µM (inactive) | 28.4 µM (inactive) | > 100 µM (inactive) | 28.8 µM (inactive) | 40.2 µM (inactive) | 35.4 µM (inactive) | > 100 µM (inactive) | 51.4 µM (inactive) | 53.7 µM (inactive) | 85.5 µM (inactive) | > 100 µM (inactive) | 54.6 µM (inactive) | 71.3 µM (inactive) | 83.4 µM (inactive) | 27.4 µM (inactive) | 85.1 µM (inactive)
CC1(C)CCC[C@@]2(C)C1CC[C@@]1(CO1)[C@@H]2/C=C\C(C=O)CC=O (stereo not given in full) | 73.6 | > 100 µM (inactive) | > 67.1 µM (inactive) | 37.6 µM (inactive) | 10.9 µM (inactive) | 99.8 µM (inactive) | > 100 µM (inactive) | > 100 µM (inactive) | > 100 µM (inactive) | > 100 µM (inactive) | > 100 µM (inactive) | > 100 µM (inactive) | > 100 µM (inactive) | > 100 µM (inactive) | > 100 µM (inactive) | > 100 µM (inactive) | > 94.8 µM (inactive) | > 100 µM (inactive) | > 100 µM (inactive) | > 100 µM (inactive)
Nc1ccc(C(=O)N/C(=C\c2cccc([N+](=O)[O-])c2)c2nc3c(O)nc(S)nc3[nH]2)cc1 | > 100 | > 100 µM (inactive) | > 92.7 µM (inactive) | > 100 µM (inactive) | > 100 µM (inactive) | 27.4 µM (inactive) | 29.9 µM (inactive) | > 100 µM (inactive) | > 93.8 µM (inactive) | 17.2 µM (inactive) | > 100 µM (inactive) | > 100 µM (inactive) | 41.9 µM (inactive) | > 100 µM (inactive) | 22.8 µM (inactive) | 37.3 µM (inactive) | 30.3 µM (inactive) | 25.9 µM (inactive) | 31 µM (inactive) | > 51.8 µM (inactive)
CC(=O)NNc1nc(C)c(C(=O)NNC(=O)C(=O)Nc2nc3ccc([N+](=O)[O-])cc3s2)s1 | > 68.1 | 44.1 µM (inactive) | 54.1 µM (inactive) | 26.4 µM (inactive) | 30.5 µM (inactive) | > 59.8 µM (inactive) | 51.6 µM (inactive) | 46.7 µM (inactive) | 31 µM (inactive) | > 82.6 µM (inactive) | 60.4 µM (inactive) | 49 µM (inactive) | 51.6 µM (inactive) | 77.8 µM (inactive) | 64.4 µM (inactive) | 60.8 µM (inactive) | 33.2 µM (inactive) | 49.1 µM (inactive) | 52.7 µM (inactive) | 80 µM (inactive)
O=C(CNC(=O)OCc1ccccc1)NCCCCC(NC(=O)OCc1ccccc1)C(=O)O (stereo not given) | > 100 | > 100 µM (inactive) | > 100 µM (inactive) | > 100 µM (inactive) | > 100 µM (inactive) | > 100 µM (inactive) | > 100 µM (inactive) | > 100 µM (inactive) | > 100 µM (inactive) | > 100 µM (inactive) | > 100 µM (inactive) | > 100 µM (inactive) | > 100 µM (inactive) | > 100 µM (inactive) | > 100 µM (inactive) | > 100 µM (inactive) | > 100 µM (inactive) | > 100 µM (inactive) | > 100 µM (inactive) | > 100 µM (inactive)
